Key:
Prothrombin = Prothrombin (Homo sapiens, UniProt P00734); assay: Inhibitory activity against alpha-human thrombin
Canis familiaris = species: Canis familiaris; assay: In vitro metabolic potential in dog liver microsomes; format: ADME, Canis lupus familiaris
[1] = Plasma clearance rate by iv administration in dog at a dose of 6 mg/kg; format: ADME, organism-based, Canis lupus familiaris; parameters: dose 6 mg/kg, route intravenous
[2] = In vitro metabolic potential in human liver microsomes; format: ADME, Microsome
Mus musculus = species: Mus musculus; assay: In vitro metabolic potential in mouse liver microsomes; format: ADME
[3] = Oral bioavailability in dog; format: ADME, organism-based, Canis lupus familiaris; conditions: in vivo
[4] = Half life period by iv administration in dog at a dose of 6 mg/kg; format: ADME, organism-based, Canis lupus familiaris; parameters: dose 6 mg/kg, route intravenous; conditions: in vivo
Rattus norvegicus = species: Rattus norvegicus; assay: In vitro metabolic potential in rat liver microsomes; format: ADME
[5] = Disassociation constant was determined; format: ADME
Coagulation factor X = Coagulation factor X (Homo sapiens, UniProt P00742); assay: In vitro inhibitory activity against serine protease FXa
Sequence of Coagulation factor X (P00742 41-179 limits assumed): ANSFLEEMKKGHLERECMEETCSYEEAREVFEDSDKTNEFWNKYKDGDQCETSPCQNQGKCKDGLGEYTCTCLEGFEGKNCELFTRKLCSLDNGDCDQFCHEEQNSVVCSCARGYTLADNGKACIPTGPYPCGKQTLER
Sequence of Coagulation factor X (P00742 235-488 limits assumed): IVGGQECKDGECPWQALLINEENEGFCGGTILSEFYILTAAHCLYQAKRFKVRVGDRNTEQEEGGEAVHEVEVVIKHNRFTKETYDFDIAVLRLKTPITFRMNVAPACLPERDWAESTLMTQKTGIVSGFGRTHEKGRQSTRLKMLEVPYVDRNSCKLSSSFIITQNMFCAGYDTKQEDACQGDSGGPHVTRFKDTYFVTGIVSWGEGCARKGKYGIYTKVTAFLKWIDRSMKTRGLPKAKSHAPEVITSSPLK

Chymotrypsinogen B = Chymotrypsinogen B (Homo sapiens, UniProt P17538); assay: In vitro inhibitory activity against serine protease Chymotrypsin
Sequence of Chymotrypsinogen B (P17538 34-164 limits assumed, other chains not shown): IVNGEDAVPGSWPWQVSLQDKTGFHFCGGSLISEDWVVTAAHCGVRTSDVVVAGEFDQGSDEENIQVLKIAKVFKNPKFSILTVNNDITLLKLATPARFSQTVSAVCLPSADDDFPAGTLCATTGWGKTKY
Sequence of Chymotrypsinogen B (P17538 167-263 limits assumed, other chains not shown): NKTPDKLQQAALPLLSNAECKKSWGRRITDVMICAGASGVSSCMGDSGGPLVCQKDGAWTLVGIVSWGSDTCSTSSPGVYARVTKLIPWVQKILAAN

Plasminogen = Plasminogen (Homo sapiens, UniProt P00747); assay: In vitro inhibitory activity against serine protease Plasmin
Sequence of Plasminogen (P00747 97-580 limits assumed): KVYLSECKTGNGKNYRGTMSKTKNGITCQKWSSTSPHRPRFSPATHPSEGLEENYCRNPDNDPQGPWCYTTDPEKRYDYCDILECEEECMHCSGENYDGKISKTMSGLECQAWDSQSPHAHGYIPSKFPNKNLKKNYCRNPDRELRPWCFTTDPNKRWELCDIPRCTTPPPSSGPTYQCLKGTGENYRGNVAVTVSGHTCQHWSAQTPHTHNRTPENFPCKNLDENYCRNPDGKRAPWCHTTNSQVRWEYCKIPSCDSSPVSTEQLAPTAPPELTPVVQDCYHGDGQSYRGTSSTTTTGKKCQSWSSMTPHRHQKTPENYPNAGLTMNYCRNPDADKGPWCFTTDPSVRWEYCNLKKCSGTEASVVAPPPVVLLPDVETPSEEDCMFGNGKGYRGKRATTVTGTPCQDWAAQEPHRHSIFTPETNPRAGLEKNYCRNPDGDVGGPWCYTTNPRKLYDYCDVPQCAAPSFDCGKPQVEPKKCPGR
Sequence of Plasminogen (P00747 581-810 limits assumed): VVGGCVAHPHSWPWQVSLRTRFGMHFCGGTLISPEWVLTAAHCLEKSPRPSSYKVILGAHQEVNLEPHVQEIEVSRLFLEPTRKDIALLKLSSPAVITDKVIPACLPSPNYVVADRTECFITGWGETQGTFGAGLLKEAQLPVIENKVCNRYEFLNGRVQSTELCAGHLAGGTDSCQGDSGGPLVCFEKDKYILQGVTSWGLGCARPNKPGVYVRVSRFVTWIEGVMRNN

Neutrophil elastase = target: T1, Neutrophil elastase (Homo sapiens, UniProt P08246); assay: In vitro inhibitory activity against serine protease Elastase
T1 sequence (P08246 whole entry): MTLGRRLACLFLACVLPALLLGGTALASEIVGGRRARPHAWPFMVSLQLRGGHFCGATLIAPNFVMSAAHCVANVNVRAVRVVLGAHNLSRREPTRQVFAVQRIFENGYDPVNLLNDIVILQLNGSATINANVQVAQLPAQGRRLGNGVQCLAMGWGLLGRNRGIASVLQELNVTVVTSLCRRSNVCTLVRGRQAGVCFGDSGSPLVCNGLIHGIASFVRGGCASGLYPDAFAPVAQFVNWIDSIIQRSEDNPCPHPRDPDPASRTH

Serine protease 1 = Serine protease 1 (Homo sapiens, UniProt P07477); assay: In vitro inhibitory activity against serine protease Trypsin
Sequence of Serine protease 1 (P07477 whole entry): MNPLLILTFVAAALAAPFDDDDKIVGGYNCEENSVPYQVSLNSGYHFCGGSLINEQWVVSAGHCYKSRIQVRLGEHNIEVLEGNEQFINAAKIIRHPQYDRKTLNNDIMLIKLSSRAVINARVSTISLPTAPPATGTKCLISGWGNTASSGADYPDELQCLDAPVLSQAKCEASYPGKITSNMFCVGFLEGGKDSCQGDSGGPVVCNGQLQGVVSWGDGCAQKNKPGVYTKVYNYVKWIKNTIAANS

Homo sapiens = species: Homo sapiens; assay: The apparent permeability coefficient (Papp) was quantitated in the human Caco-2 monolayer assay; format: functional

Work on `CS(=O)(=O)c1ccccc1S(=O)(=O)Oc1cc(F)cc(OCC2(CON=C(N)N)CC2)c1` yielded a Ki (Prothrombin) of 49.3 nM.
`C=C(CONC(=N)N)COc1cc(C)cc(OS(=O)(=O)c2ccccc2S(C)(=O)=O)c1` gave a Ki (Prothrombin) of 32.4 nM.
Molecule `CCc1cc(OCCCONC(=N)N)cc(OS(=O)(=O)c2ccccc2S(C)(=O)=O)c1` has a Ki (Prothrombin) of 29.7 nM.
With `Cc1cc(OCCCON=C(N)N)cc(OS(=O)(=O)c2cccc(S(C)(=O)=O)c2)c1` the Ki (Prothrombin) was 204 nM.
Molecule `Cc1cc(OCC(F)CON=C(N)N)cc(OS(=O)(=O)c2ccccc2S(C)(=O)=O)c1` (stereo not drawn) has a Ki (Prothrombin) of 114 nM.
For `Cc1cc(OCCCONC(=N)N)cc(OS(=O)(=O)c2ccccc2S(C)(=O)=O)c1`, the Microsomal stability (Canis familiaris) was 21.1 pg min-1 (mg of protein)-1, the clearance [1] was 6.9 mL/min/kg and the Microsomal stability [2] was 50.4 pg min-1 (mg of protein)-1. For the same molecule, the Microsomal stability (Mus musculus) was 30.8 pg min-1 (mg of protein)-1, the bioavailability [3] was 95% and the half-life [4] was 438 min. For the same molecule, the Microsomal stability (Rattus norvegicus) was 69.5 pg min-1 (mg of protein)-1, the pKa [5] was 7.05 and the Ki (Coagulation factor X) was over 22 µM. For the same molecule, the Ki (Chymotrypsinogen B) was over 22 µM, the Ki (Plasminogen) was over 22 µM and the Ki (Neutrophil elastase) was over 22 µM. It also gave a Ki (Serine protease 1) of over 22 µM.
In the case of `Cc1cc(OCCCONC(=N)N)cc(OS(=O)(=O)c2ccccc2S(=O)(=O)c2ccccc2)c1`, the Ki (Prothrombin) is reported as 4.8 nM.
Work on `Cc1cc(OCCCON=C(N)N)cc(OS(=O)(=O)c2ccccc2N)c1` yielded a Ki (Prothrombin) of 86.6 nM.
With `Cc1cc(OCCCONC(=N)N)cc(OS(=O)(=O)c2cccc3cccnc23)c1` the Ki (Prothrombin) was 6.7 nM.
For `Cc1cc(OCC(O)CON=C(N)N)cc(OS(=O)(=O)c2ccccc2S(C)(=O)=O)c1` (stereo not drawn), the Ki (Prothrombin) was 137 nM.
With `Cc1cc(OCCCON=C(N)N)cc(OS(=O)(=O)c2ccccc2S(C)(=O)=O)c1` the Papp (Homo sapiens) was 2.4e-06 cm/s.
For `COc1ccccc1S(=O)(=O)Oc1cc(C)cc(OCCCONC(=N)N)c1`, the Ki (Prothrombin) was 6.7 nM.
For `COc1cc(OCCCONC(=N)N)cc(OS(=O)(=O)c2ccccc2S(C)(=O)=O)c1`, the Ki (Prothrombin) was 34.6 nM.
Work on `CS(=O)(=O)c1ccccc1S(=O)(=O)Oc1cc(CO)cc(OCC2(CON=C(N)N)CC2)c1` yielded a Ki (Prothrombin) of 403 nM.
In the case of `CS(=O)(=O)c1ccccc1S(=O)(=O)Oc1cc(Cl)cc(OCCCON=C(N)N)c1`, the Ki (Prothrombin) is reported as 39.4 nM.
`Cc1cc(OCCCON=C(N)N)cc(OS(=O)(=O)c2cccc3c2NCCC3)c1` showed a Ki (Prothrombin) of 31 nM.
For `Cc1cc(OCCCONC(=N)N)cc(OS(=O)(=O)c2ccc3c(c2)S(=O)(=O)CC3)c1`, the Ki (Prothrombin) was 102 nM.
`Cc1cc(OCCCON=C(N)N)cc(OS(=O)(=O)c2cccc3cnccc23)c1` gave a Ki (Prothrombin) of 13.2 nM.
For `Cc1cc(OCCCONC(=N)N)cc(OS(=O)(=O)c2ccc(S(C)(=O)=O)cc2S(C)(=O)=O)c1`, the Ki (Prothrombin) was 749 nM.
Work on `Cc1cc(OCC(F)(F)CON=C(N)N)cc(OS(=O)(=O)c2ccccc2S(C)(=O)=O)c1` yielded a Ki (Prothrombin) of 364 nM.
Molecule `Cc1cc(OCCCONC(=N)N)cc(OS(=O)(=O)c2ccccc2C#N)c1` has a Ki (Prothrombin) of 9.9 nM.
